Among the data in paper PMC12040169 (PLOS Biology, 2025) are viability values, retold here.

A short description of the data set: in vitro. Conditions: human, hela cells, % viability.

Structures are written as SMILES.

Broadly, the viability is a read-out of living cells in per cent, often relative to untreated cells.

Regarding `O=C(OCc1csc2ccc(Cl)cc12)N1CCOCC1` [CBK200164], the viability at 28.5 h, 10 µM worked out at 94.7%.
To `COc1ncccc1C(=O)N1CCN(c2ccccc2)CC1` [CBK200166] belongs 103%.
The same measure for `COc1ccc(C(=O)N2CCN(Cc3ccccc3)CC2)c(OC)n1` [CBK200169]: 99.2%; for `Cc1ccc(C(=O)N2CCN(Cc3ccccc3)CC2)cn1` [CBK200170]: 93.6%.
In the case of `O=C(c1cc2ccccc2[nH]1)N1CCN(Cc2ccccc2)CC1` [CBK200172], the viability at 28.5 h, 10 µM turned out to be 118%.
The same measure for `Cc1noc(C)c1C(=O)N1CCN(Cc2ccccc2)CC1` [CBK200173]: 90.9%; for `O=C(c1nccc2ccccc12)N1CCN(Cc2ccccc2)CC1` [CBK200176]: 98%.
The same measure for `Cn1cncc1C(=O)N1CCN(Cc2ccccc2)CC1` [CBK200178]: 98.2%.
To `Cc1ccc(C(=O)N2CCC(Cc3ccccc3)CC2)cn1` [CBK200179] belongs 94.7%; to `O=C(c1c[nH]c2ccccc12)N1CCC(Cc2ccccc2)CC1` [CBK200180], 91.3%; to `Cn1cccc1C(=O)N1CCC(Cc2ccccc2)CC1` [CBK200182], 102%.
Regarding `O=C(c1ccno1)N1CCC(Cc2ccccc2)CC1` [CBK200185], the viability at 28.5 h, 10 µM is 112%.
To `CCOc1ccsc1C(=O)N1CCC(Cc2ccccc2)CC1` [CBK200186] belongs 114%; to `Cc1cc(C(=O)N2CCC(Cc3ccccc3)CC2)n[nH]1` [CBK200187], 84.2%.
To `O=C(c1cscn1)N1CCC(Cc2ccccc2)CC1` [CBK200188] belongs 103%; to `COc1ccc(C(=O)NCc2ccccc2)c(OC)n1` [CBK200190], 142%.
To `O=C(c1cccc2[nH]ccc12)N1CCN(CCc2ccccc2)CC1` [CBK200203] belongs 104%; to `O=C(c1cncnc1)N1CCC(Cc2ccccc2)CC1` [CBK200212], 92.8%.
As to `O=C(c1cnc2ccccc2n1)N1CCN(CCc2ccccc2)CC1` [CBK200214], the viability at 28.5 h, 10 µM worked out at 91%.
On to `Cc1ccc(NC(=O)c2ccc3nccnc3c2)c(C)n1` [CBK200219], for which the viability at 28.5 h, 10 µM came to 93.6%.
To `Cc1noc(C)c1NC(=O)c1cnc2ccccc2n1` [CBK200220] belongs 98.1%; to `Cc1noc(C)c1NC(=O)c1ccc2nccnc2c1` [CBK200221], 84.1%.
To `Cc1noc(C)c1C(=O)N1CCN(CCc2ccccc2)CC1` [CBK200225] belongs 95.8%; to `COc1ncccc1C(=O)N1CCN(CCc2ccccc2)CC1` [CBK200226], 88.4%; to `O=C(c1ccc(CCN2CCCC2)nc1)N1CCN(CCc2ccccc2)CC1` [CBK200227], 91.6%.
To `COc1ccc(C(=O)N2C[C@@H](C)O[C@@H](C)C2)c(OC)n1` [CBK200231] belongs 92.2%; to `C[C@@H]1CN(C(=O)c2n[nH]c3ccccc23)C[C@H](C)O1` [CBK200232], 98.6%; to `C[C@@H]1CN(C(=O)c2nccc3ccccc23)C[C@H](C)O1` [CBK200233], 92.8%.
With `C[C@@H]1CN(C(=O)c2cc3ccccc3n2C)C[C@H](C)O1` [CBK200234], the viability at 28.5 h, 10 µM amounted to 91.4%.
Take `O=C(NC1CCCC1)c1cccnc1` [CBK200236]: the viability at 28.5 h, 10 µM turned out to be 111%.
To `O=C(Cc1c[nH]c2ccccc12)NC1CCCC1` [CBK200238] belongs 76.1%; to `O=C(CCc1cccnc1)NC1CCCC1` [CBK200239], 97.9%.
To `O=C(OCc1ccccc1)N1CCN(c2ccccc2)CC1` [CBK200241] belongs 116%; to `CC(OC(=O)N1CCN(c2ccccc2)CC1)c1ccccc1` (stereo not shown) [CBK200243], 104%; to `O=C(NCc1ccccc1)c1ccc(N2CCOCC2)nc1` [CBK200244], 96.3%.
Turning to `CCN1CCN(C(=O)c2cccn2C)CC1` [CBK200248], the viability at 28.5 h, 10 µM worked out at 84.7%.
As to `CCN1CCN(C(=O)c2ccc3ccccc3n2)CC1` [CBK200249], the viability at 28.5 h, 10 µM is 133%.
Take `CCN1CCN(C(=O)c2ccc(N(C)C)cc2)CC1` [CBK200252]: the viability at 28.5 h, 10 µM was found to be 96.4%.
As to `CCN1CCN(C(=O)Cc2cn(C)c3ccccc23)CC1` [CBK200254], the viability at 28.5 h, 10 µM came to 96.9%.
The same measure for `O=C(Cn1cnnn1)NCc1ccccc1` [CBK200255]: 83.6%; for `Cn1cncc1C(=O)NC1CCCC1` [CBK200256]: 95.5%.
On to `O=C(c1ccc2nccnc2c1)N1CCCc2ccccc21` [CBK200257], for which the viability at 28.5 h, 10 µM was determined as 95.3%.
Regarding `O=C(COc1cccnc1)N1CCCc2ccccc21` [CBK200258], the viability at 28.5 h, 10 µM came to 92.5%.
The same measure for `O=C(c1cncnc1)N1CCCc2ccccc21` [CBK200259]: 91.4%.
In the case of `CN1CCC(C(=O)N2CCCc3ccccc32)CC1` [CBK200260], the viability at 28.5 h, 10 µM was 95%.
To `Cc1cc2ncn(CC(=O)NC3Cc4ccccc4C3)c2cc1C` [CBK200261] belongs 97.3%; to `CN1CCC(C(=O)NC2Cc3ccccc3C2)CC1` [CBK200263], 118%.
The same measure for `O=C(c1cnc2ccccc2n1)N1CCc2ccccc21` [CBK200267]: 117%.
Regarding `O=C(COc1cccnc1)N1CCc2ccccc21` [CBK200268], the viability at 28.5 h, 10 µM was found to be 107%.
The same measure for `O=C(c1ccc2[nH]ccc2c1)N1CCc2ccccc21` [CBK200269]: 101%.
As for `Cc1cc2ncn(CC(=O)N3CCc4ccccc43)c2cc1C` [CBK200270], the viability at 28.5 h, 10 µM amounted to 114%.
To `O=C(CN1CCOCC1)N1CCc2ccccc21` [CBK200271] belongs 96.3%.
To `O=C(c1cnc2ccccc2c1)N1CCC(F)CC1` [CBK200273] belongs 102%; to `O=C(c1ccc2ccccc2n1)N1CCC(F)CC1` [CBK200276], 102%; to `O=C(c1nc2ccccc2[nH]1)N1CCC(F)CC1` [CBK200278], 90.3%.
The same measure for `O=C(c1ccncc1)N1CCc2ccccc21` [CBK200280]: 93.7%; for `COc1ccc(C(=O)N2CCc3ccccc32)c(OC)n1` [CBK200281]: 106%.
For the compound `O=C(c1n[nH]c2ccccc12)N1CCc2ccccc21` [CBK200282], the viability at 28.5 h, 10 µM stood at 90.6%.
Take `O=C(c1cnc2ccccc2c1)N1CCc2ccccc21` [CBK200284]: the viability at 28.5 h, 10 µM came out at 77.7%.
The same measure for `C[C@@H]1CN(C(=O)OCc2ncc(F)cc2F)C[C@H](C)O1` [CBK200286]: 103%; for `Cc1ccc(CNC(=O)OCCN2CCN(C)CC2)n1C` [CBK200287]: 86.8%; for `Cc1ccc(NC(=O)c2cnccn2)c(C)n1` [CBK200291]: 97.2%.
To `COc1ncccc1C(=O)Nc1ccc(C)nc1C` [CBK200292] belongs 90.6%; to `Cc1ccc(NC(=O)c2ccc3ccccc3n2)c(C)n1` [CBK200293], 83.2%.
